# Results published in patent US20080045535A1, “Prokineticin 2 receptor antagonists” (priority 2005, published 2008).
# Several values for one entry are separate records, joined by “and”; a condition that tells them apart may be missing. Equal entries are not always repeated.
# Target: T1, HEK 293 GPR73 (prokineticin 1 receptor) expressing cells (Homo sapiens, UniProt Q8TCW9)
# T1 construct: expressed in transfected cells; host or cells: HEK 293
# Test: PK1 functional assay: screening for PK1 antagonists on the FLIPR (calcium fluorescence)
# Assay type: cell-based
# Details: HEK 293 GPR73 cells; for inhibition at 10 µM: HEK293, compound at 10 μM, read-out: Ca^2+ Mobilization % Inh @10 μM; for inhibition at 10 µM / Ca^2+ Mobilization % Inh @10 μM: multiple values = repeat tests; for IC50: PK1 ligand at EC50, multiple values = repeat tests, read-out: Ca^2+ Mobilization IC50; for Ca^2+ Mobilization % Inh @10 μM: compound at 10 μM
# Description: At a time of 24 h prior to running the assay, in cell culture media (DMEM containing high Glucose and L-glutamine, 10% FBS, 1% Pen/Streptomycin, 1% Sodium Pyruvate, 20 mM HEPES, Zeocin 200 mg/L), 100 μL of 1.3*10^6/ml HEK 293 GPR73 (prokineticin 1 receptor) expressing cells were plated in a 96 well poly-d-lysine coated plate (Costar), and incubated at 37 C and 5% CO2. On the day in which the assay was run, the media was removed and 200 μL of 5× Calcium Plus Dye (Molecular Devices) which was previously resuspended with 200 mL of assay buffer [HBSS w/Ca^2+ and Mg^2+ w/o phenol red, 20 mM HEPES, 0.1% BSA, 10 mL probenecid (710 mg probenecid in 5 mL of 1N NaOH, to which was then added 5 mL HBSS containing 20 mM HEPES)] was added to each well of the 96-well plate. The plate was incubated at 37 C and 5% CO2 for 30 min in dark. The plate was removed and allowed to reach RT for 15 min in the dark. The assay was then run on the FLIPR. […] Baseline is described as the amount of relative fluorescence read when buffer alone is added to cells. Baseline was subtracted from all wells. Percent of control was calculated as follows:
# (Baseline subtracted well value is divided by baseline subtracted max value)*100.
# Percent inhibition is 100 minus the percent of control value.
# IC50 values were calculated using GraphPad Prism.
# Table 2 includes data generated from the PK1 functional assay described in Example 2.
# T1 sequence (Q8TCW9 whole entry): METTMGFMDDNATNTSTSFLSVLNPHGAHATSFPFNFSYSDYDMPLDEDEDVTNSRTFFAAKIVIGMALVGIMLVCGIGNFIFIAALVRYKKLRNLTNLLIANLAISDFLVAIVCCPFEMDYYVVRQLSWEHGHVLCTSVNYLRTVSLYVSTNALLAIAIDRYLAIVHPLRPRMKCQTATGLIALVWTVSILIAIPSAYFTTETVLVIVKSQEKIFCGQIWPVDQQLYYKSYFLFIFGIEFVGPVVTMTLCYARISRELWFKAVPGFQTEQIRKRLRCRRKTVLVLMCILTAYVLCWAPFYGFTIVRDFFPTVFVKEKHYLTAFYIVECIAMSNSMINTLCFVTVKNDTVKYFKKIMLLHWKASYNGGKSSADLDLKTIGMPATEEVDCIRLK
SMILES,inhibition at 10 µM [%],IC50,Ca^2+ Mobilization % Inh @10 μM (10 µM),Ca^2+ Mobilization % Inh @10 μM [%]
COc1ccc(Cn2c(N[C@@H]3CCCC[C@@H]3NC(=N)N)nc(=O)n(Cc3ccc(Cl)c(Cl)c3)c2=O)cc1 (racemic) [Cpd 42],92,281 nM,–,–
NC(N)=NCCNc1nc(=O)n(Cc2ccccc2)c(=O)n1Cc1ccc(F)cc1 [Cpd 1],30,> 10000 nM,–,–
COc1ccc(Cn2c(NCCNC(=N)N)nc(=O)n(Cc3ccccc3)c2=O)cc1 [Cpd 2],92,125 nM and 363 nM and 336 nM and 927 nM,85% and 74% and 87%,–
COC(=O)c1ccc(Cn2c(NCCNC(=N)N)nc(=O)n(Cc3ccccc3)c2=O)cc1 [Cpd 3],–,4960 nM,–,52
COc1ccc(Cn2c(NCCNC(=N)N)nc(=O)n(CCc3ccccc3)c2=O)cc1 [Cpd 4],71,2500 nM,–,–
CCCCn1c(=O)nc(NCCNC(=N)N)n(Cc2ccc(OC)cc2)c1=O [Cpd 5],67,2180 nM,–,–
COc1ccc(Cn2c(NCCNC(=N)N)nc(=O)n(Cc3ccco3)c2=O)cc1 [Cpd 6],59,2590 nM,–,–
N=C(N)NCCNc1nc(=O)n(Cc2ccccc2)c(=O)n1Cc1cccc(C(F)(F)F)c1 [Cpd 7],52,> 10000 nM,–,–
CC(C)(C)c1ccc(Cn2c(NCCNC(=N)N)nc(=O)n(Cc3ccccc3)c2=O)cc1 [Cpd 8],64,3850 nM,–,–
N=C(N)NCCNc1nc(=O)n(Cc2ccccc2)c(=O)n1Cc1ccc([N+](=O)[O-])cc1 [Cpd 9],–,> 10000 nM,–,35
COc1ccc(Cn2c(NCCONC(=N)N)nc(=O)n(Cc3ccccc3)c2=O)cc1 [Cpd 10],–,> 10000 nM,–,33
N=C(N)NCCNc1nc(=O)n(Cc2ccccc2)c(=O)n1Cc1ccncc1 [Cpd 11],32,> 10000 nM,–,–
CCOc1ccc(Cn2c(NCCNC(=N)N)nc(=O)n(Cc3ccccc3)c2=O)cc1 [Cpd 12],97,34 nM and 82 nM and 247 nM,96% and 94% and 90%,–
N=C(N)NCCNc1nc(=O)n(Cc2ccccc2)c(=O)n1Cc1ccc(OC(F)F)cc1 [Cpd 13],92,104 nM and 256 nM,91%,–
N=C(N)NCCNc1nc(=O)n(Cc2ccccc2)c(=O)n1Cc1ccc(C(F)(F)F)cc1 [Cpd 15],55,6110 nM,–,–
COc1ccc(Cn2c(NCCNC(=N)N)nc(=O)n(Cc3ccccc3F)c2=O)cc1 [Cpd 16],77,836 nM,–,–
"COc1ccc(Cn2c(NCCNC(=N)N)nc(=O)n(Cc3ccc(F)cc3)c2=O)cc1 [Cpd 17, N-{2-[5-(4-Fluoro-benzyl)-1-(4-methoxy-benzyl)-4,6-dioxo-1,4,5,6-tetrahydro-[1,3,5]triazin-2-ylamino]-ethyl}-guanidine]",100,14 nM and 33 nM and 87 nM,99% and 97%,–
COc1ccc(Cn2c(NCCNC(=N)N)nc(=O)n(Cc3ccc(Cl)c(Cl)c3)c2=O)cc1 [Cpd 18],98,7 nM and 28 nM and 41 nM and 22 nM and 54 nM,100% and 101% and 99%,–
N=C(N)NCCNc1nc(=O)n(Cc2ccccc2)c(=O)n1Cc1ccc(OC(F)(F)F)cc1 [Cpd 19],81,862 nM,–,–
COc1ccc(Cn2c(NCCNC(=N)N)nc(=O)n(Cc3cccc(OC)c3)c2=O)cc1 [Cpd 20],61,3690 nM,–,–
COc1ccc(Cn2c(NCCNC(=N)N)nc(=O)n(Cc3ccccc3OC)c2=O)cc1 [Cpd 21],43,> 10000 nM,–,–
N=C(N)NCCNc1nc(=O)n(Cc2ccccc2)c(=O)n1Cc1ccc(C(N)=O)cc1 [Cpd 22],80,947 nM,–,–
CC(=O)Nc1ccc(Cn2c(NCCNC(=N)N)nc(=O)n(Cc3ccccc3)c2=O)cc1 [Cpd 23],74,1250 nM,–,–
CCOc1ccc(Cn2c(NCCNC(=N)N)nc(=O)n(Cc3ccc(F)cc3)c2=O)cc1 [Cpd 24],99,41 nM,–,–
